Measurements as given in paper PMC9124699 (International Journal of Nanomedicine, 2022).
Read-outs that look alike come from different tables or passages of the source.

Assays:
[1] = Degradation of LEU and L18FCs and conversion to LEU in human plasma; format: in vitro ADME
[2] = no reference given, cited from earlier work
[3] = no reference given, cited from earlier work; remark: listed apart in the source
[4] = 1 mg intravenous administration; no reference given; cited from earlier work

## CCNC(=O)[C@@H]1CCCN1C(=O)[C@H](CCCNC(=N)N)NC(=O)[C@H](CC(C)C)NC(=O)[C@@H](CC(C)C)NC(=O)[C@H](Cc1ccc(O)cc1)NC(=O)[C@H](CO)NC(=O)[C@H](Cc1c[nH]c2ccccc12)NC(=O)[C@H](Cc1c[nH]cn1)NC(=O)[C@@H]1CCC(=O)N1 [LEU, leuprolide]
[1]
  metabolised at 840 h, 1 mg/mL: ~45.8%
[2]; PBS, introduction statement
  Solubility in phosphate buffered solution (PBS): approximately 10 mg/mL

## CCCCC/C=C\C/C=C\CCCCCCCC(=O)O [Linoleic acid]
[3]; C18 fatty acids, Table 2
  log P: 7.05

## CCCCCCCC/C=C\CCCCCCCC(=O)O [Oleic acid]
[3]; C18 fatty acids, Table 2
  log P: 7.64

## CCCCCCCCCCCCCCCCCC(=O)O [Stearic acid]
[3]; C18 fatty acids, Table 2
  log P: 8.23

## leuprolide acetate [LEU acetate]
[2]; in water
  Solubility: ≥ 66.66 mg/mL (52.51 mM) in water
[3]; LEU acetate, Table 1
  log P: −2.7–1.07
[4]
  Half life: 3 h
